The text below walks through data of patent US20100317647A1 (priority 2009, published 2010).

What is called IC50 is the midpoint of a concentration-inhibition curve. High values mean weaker potency, low ones greater potency.

Chain of human Cat S (P25774 115-331): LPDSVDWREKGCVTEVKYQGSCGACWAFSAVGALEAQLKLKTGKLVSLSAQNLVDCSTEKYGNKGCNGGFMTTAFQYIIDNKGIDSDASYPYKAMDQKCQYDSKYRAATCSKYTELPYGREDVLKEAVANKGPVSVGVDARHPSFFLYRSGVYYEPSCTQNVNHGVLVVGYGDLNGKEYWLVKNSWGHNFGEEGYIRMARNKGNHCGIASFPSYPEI

This assay has as its target human Cat S (Homo sapiens, UniProt P25774). The assay can be described thus: Cathepsin enzyme inhibition assay (fluorogenic peptide substrate cleavage). The following applies: human Cat S 1 nM; substrate Z-Val-Val-Arg-AMC 20 μM; pH 6.5; fluorescence over 20 minutes. The assay is classed as biochemical. In a few lines: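 Fluorogenic cleavage of Z-Val-Val-Arg-AMC (20 μM) by 1 nM enzyme in 100 mM potassium phosphate pH 6.5, 5 mM EDTA, 5 mM DTT, 0.001% Triton X-100. Reaction started with substrate; fluorescence (ex 360/em 465 nm) followed over 20 minutes. IC50 by standard methods.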
Molecule `COc1cncc(-c2ccc(S(=O)(=O)[C@H]3C[C@@H](OC)[C@H](C(=O)NC4(C#N)CC4)C3)c(C(F)(F)F)c2)c1` (racemic) [Example 86, (1R,2R,4R) and (1S,2S,4S)-2-Methoxy-4-[4-(5-methoxy-pyridin-3-yl)-2-trifluoromethyl-benzenesulfonyl]-cyclopentanecarboxylic acid (1-cyano-cyclopropyl)-amide] had an IC50 of 0.5 nM.
Under `CO[C@@H]1C[C@H](S(=O)(=O)c2ccc(-c3cnn(C)c3)cc2C(F)(F)F)C[C@H]1C(=O)NC1(C#N)CC1` [Example 138, (1R,2R,4R)-2-Methoxy-4-[4-(1-methyl-1H-pyrazol-4-yl)-2-trifluoromethyl-benzenesulfonyl]-cyclopentanecarboxylic acid (1-cyano-cyclopropyl)-amide] stands 0.4 nM.
In the case of `CO[C@@H]1C[C@H](S(=O)(=O)c2ccc(N3CCC(F)(F)CC3)cc2C(F)(F)F)C[C@H]1C(=O)NC1(C#N)CC1` (racemic) [Example 178, (1R,2R,4R) and (1S,2S,4S)-4-[4-(4,4-Difluoro-piperidin-1-yl)-2-trifluoromethyl-benzenesulfonyl]-2-methoxy-cyclopentanecarboxylic acid (1-cyano-cyclopropyl)-amide] it was 0.885 nM; in that of `N#CC1(NC(=O)[C@@H]2C[C@@H](S(=O)(=O)c3ccc(-c4ccnc(Cl)c4)cc3Cl)C[C@H]2C(=O)N2CCC(F)(F)C2)CC1` [Example 199, (1R,2R,4R)-4-[2-Chloro-4-(2-chloro-pyridin-4-yl)-benzenesulfonyl]-2-(3,3-difluoro-pyrrolidine-1-carbonyl)-cyclopentanecarboxylic acid (1-cyano-cyclopropyl)-amide], 0.135 nM.
Under `Cc1ccc(C(C)(C)O[C@@H]2C[C@H](S(=O)(=O)c3ccccc3Cl)C[C@H]2C(=O)NC2(C#N)CC2)cc1` (racemic) [Example 245, (1R,2R,4R) and (1S,2S,4S)-4-(2-chlorophenylsulfonyl)-N-(1-cyanocyclopropyl)-2-(2-p-tolylpropan-2-yloxy)cyclopentanecarboxamide] stands 11.4 nM; under `CN1CCN(c2ccc(S(=O)(=O)[C@@H]3C[C@@H](C(=O)NC4(C#N)CC4)[C@H](C(=O)N4CC(F)(F)C4)C3)c(Cl)c2)CC1` [Example 158, (1R,2R,4R)-4-[2-Chloro-4-(4-methyl-piperazin-1-yl)-benzenesulfonyl]-2-(3,3-difluoro-azetidine-1-carbonyl)-cyclopentanecarboxylic acid (1-cyano-cyclopropyl)-amide], 0.63 nM; under `CCNC(=O)Cn1cc(-c2ccc(S(=O)(=O)[C@H]3C[C@@H](OC)[C@H](C(=O)NC4(C#N)CC4)C3)c(C(F)(F)F)c2)cn1` (racemic) [Example 223, (1R,2R,4R) and (1S,2S,4S)-4-[4-(1-Ethylcarbamoylmethyl-1H-pyrazol-4-yl)-2-trifluoromethyl-benzenesulfonyl]-2-methoxy-cyclopentanecarboxylic acid (1-cyano-cyclopropyl)-amide], 0.31 nM.
For `CCCO[C@@H]1C[C@H](S(=O)(=O)c2ccccc2C(F)(F)F)C[C@H]1C(=O)NCC#N` (racemic) [Example 55, (1R,2R,4R) and (1S,2S,4S)-2-Propoxy-4-(2-trifluoromethyl-benzenesulfonyl)-cyclopentanecarboxylic acid cyanomethyl-amide], half-maximal inhibition (IC50) was put at 2.1 nM. This IC50 is about 6.8-fold higher than that of the molecule before.
Under `CO[C@@H]1C[C@H](S(=O)(=O)c2ccc(Cl)cc2Cl)C[C@H]1C(=O)NC1(C#N)CC1` (racemic) [Example 50, (1R,2R,4R) and (1S,2S,4S)-4-(2,4-Dichloro-benzenesulfonyl)-2-methoxy-cyclopentanecarboxylic acid (1-cyano-cyclopropyl)-amide] stands 25 nM.
